Legend:
[1] = tested on: AD38 cells; assay: Viability of AD38 cells (Promega CellTiter-Glo) at the end of compound treatment; type: cell-based; settings: 10 μM compound, 6 days, luminescence normalized against DMSO control wells (controls being 100%)
Method: (§1) Example 56: Assay Measuring Activity of Compounds on Viral Production in and on Viability of AD38 Cells
(§2) AD38 cells were then re-suspended with 10 mL of Treatment Medium and counted. Wells of a collagen coated 96-well NUNC microtiter plate were seeded at 50,000/well in 180 μL of Treatment Medium, and 20 μL of in treatment media with either 10% DMSO (Control) or a 10× solution of compound in 10% DMSO was added. Plates were incubated for 6 days at 37° C.
At the end of compound treatment period cell viability was assessed using a Promega CellTiter-Glo protocol. All supernatant was removed the previously treated 96-well microtiter plate, and 50 μL Tetracycline-free treatment medium (DMEM/F12 (1:1), lx Pen/step (cat#: 30-002-CL, Mediatech, Inc), with 2% FBS, Tet-system approved (cat#: 631106, Clontech), and 1% DMSO was added back to each well. Another 50 μL of CellTiter-Glo reagent solution (Promega, G7573) was then added at room temperature and the contents mixed for 2 minutes on an orbital shaker to induce cell lysis. This was followed by incubation at room temperature for 10 minutes to stabilize the luminescent signal. The luminescence was recorded for 0.2 seconds per well on a Tecan multimode platereader (Infinite M1000 pro). The luminescent signal from each well was normalized against that of untreated (DMSO) control wells. All results were reported percent viability (with controls being 100%).

[2] = tested on: HBV viral production in AD38 cells; assay: Viral load production in AD38 cells by quantitative PCR of the HBV core sequence in supernatant; type: cell-based; settings: Hepatitis B virus, 144 h; 10 μM compound, 6 days at 37° C., viral load in supernatant compared against DMSO control wells; read-out: AD38 Viral Load (CpAM/DMSO %) at 10 μM
Method: as §1, §2
Viral load production was assayed by quantitative PCR of the core sequence. Briefly, 5 μL of clarified supematant was added to a PCR reaction mixture that contained forward primers HBV-f 5′-CTGTGCCTTGGGTGGCTTT-3′, Reverse primers HBV-r 5′-[…]-3′ and Fluorescent TaqMan™ Probes HBV-probe 5′-FAM/AGCTCCAAA/ZEN/[…]/3IABkFQ-3′ in Quanta Biosciences PerfeCTa® qPCR Toughmix®, and was subsequently on an Applied Biosystems VIIA7 in a final volume of 20 μL. The PCR mixture was incubated at 45° C. for 5 minutes, then 95° C. for 10 min, followed by 40 cycles of 10 seconds at 95° C. and 20 seconds at 60° C. Viral load was quantitated against known standards by using ViiA™ 7 Software. Viral load in the supematant from wells with treated cells were compared against viral load in supernatant from DMSO control wells (≥3 per plate).

| Structure (SMILES) | AD38 Viability Normalized Result (CPAM/DMSO %) at 10 μM [1] [%] | activity at 10 µM [2] [%] |
| --- | --- | --- |
| CCOc1ccc(CCNC(=O)c2ccc3c(c2)NC(=O)c2ccccc2S3)cc1 [Compound 1214] | 94 | 2 |
| O=C(NCCC1CCC(F)(F)CC1)c1ccc2c(c1)NC(=O)c1ccccc1S2 [Compound 1216] | 125 | 1 |
| O=C(NCCC1CCC(F)CC1)c1ccc2c(c1)NC(=O)c1ccccc1S2 (stereo not drawn) [Compound 1217] | 37 | 1 |
| O=C(NCc1ccccc1O)c1ccc2c(c1)NC(=O)c1ccccc1S2 [Compound 1219] | 100 | 5 |
| O=C(NC[C@H](O)c1ccccc1)c1ccc2c(c1)NC(=O)c1ccccc1S2 [Compound 1220] | 94 | 2 |
| C[C@@H](O)CNC(=O)c1ccc2c(c1)NC(=O)c1ccccc1S2 [Compound 1221] | 106 | 19 |
| C[C@H](O)CNC(=O)c1ccc2c(c1)NC(=O)c1ccccc1S2 [Compound 1222] | 100 | 32 |
| O=C(Nc1ccccc1)c1ccc2c(c1)NC(=O)c1ccccc1S2 [Compound 1223] | 28 | 2 |
| O=C(NCCc1ccccc1)Nc1ccc2c(c1)NC(=O)c1ccccc1S2 [Compound 1224, 1-(11-oxo-10, 11-dihydrodibenzo [b,f] [1,4]thiazepin-8-yl)-3-phenethylurea] | 65 | 3 |
| O=C(NCCC1CCCCC1)Nc1ccc2c(c1)NC(=O)c1ccccc1S2 [Compound 1225, 1-(2-cyclohexylethyl)-3-(11-oxo-10, 11-dihydrodibenzo [b,f] [1,4]thiazepin-8-yl) urea] | 87 | 10 |
| O=C(NC[C@@H](O)c1ccccc1)c1ccc2c(c1)NC(=O)c1ccccc1S2 [Compound 1226] | 80 | 1 |
| CN(C)c1ccccc1CNC(=O)c1ccc2c(c1)NC(=O)c1ccccc1S2 [Compound 1227] | 92 | 10 |
| O=C(Nc1ccccc1O)c1ccc2c(c1)NC(=O)c1ccccc1S2 [Compound 1229] | 76 | 45 |
| O=C(Nc1ccccn1)c1ccc2c(c1)NC(=O)c1ccccc1S2 [Compound 1230] | 102 | 46 |
| O=C(Nc1cccnc1)c1ccc2c(c1)NC(=O)c1ccccc1S2 [Compound 1231] | 93 | 12 |
| O=C(NCc1ccccc1OC(F)(F)F)c1ccc2c(c1)NC(=O)c1ccccc1S2 [Compound 1232] | 94 | 42 |
| O=C(NCc1cncnc1)c1ccc2c(c1)NC(=O)c1ccccc1S2 [Compound 1233] | 93 | 1 |
| O=C(NCCC1CCCCC1)c1ccc2c(c1)NC(=O)c1ccc(F)cc1S2 [Compound 1234] | 79 | 3 |
| O=C(NCCC1CCCCC1)c1ccc2c(c1)NC(=O)c1cc(Cl)ccc1S2 [Compound 1235] | 61 | 6 |
| O=C(NCCC1CCCCC1)c1ccc2c(c1)NC(=O)c1ccncc1S2 [Compound 1237] | 66 | 4 |

| Structure (SMILES) | AD38 Viability Normalized Result (CPAM/DMSO %) at 10 μM [1] [%] | activity at 10 µM [2] [%] |
| --- | --- | --- |
| COC(C)(C)CCNC(=O)c1ccc2c(c1)NC(=O)c1ccccc1S2 [Compound 1238] | 104 | 26 |
| CNc1ccccc1CNC(=O)c1ccc2c(c1)NC(=O)c1ccccc1S2 [Compound 1239, N-(2-(methylamino)benzyl)-11-oxo-10, 11-dihydrodibenzo [b,f] [1,4] thiazepine-8-carboxamide] | 106 | 33 |
| O=C(NCc1ccccc1N1CCCC1)c1ccc2c(c1)NC(=O)c1ccccc1S2 [Compound 1240] | 92 | 26 |
| O=C(NCCCOc1ccccc1)c1ccc2c(c1)NC(=O)c1ccccc1S2 [Compound 1241] | 86 | 12 |
| CC(=O)Nc1ccccc1NC(=O)c1ccc2c(c1)NC(=O)c1ccccc1S2 [Compound 1242] | 78 | 91 |
| CC(=O)Nc1cccc(NC(=O)c2ccc3c(c2)NC(=O)c2ccccc2S3)c1 [Compound 1243] | 118 | 20 |
| O=C(NCCC1CCNCC1)c1ccc2c(c1)NC(=O)c1ccccc1S2 [Compound 1244, 11-oxo-N-(2-(piperidin-4-yl)ethyl)-10, 11-dihydrodibenzo [b,f] [1,4] thiazepine-8-carboxamide] | 103 | 14 |
| O=C(NCc1cncs1)c1ccc2c(c1)NC(=O)c1ccccc1S2 [Compound 1245] | 101 | 1 |
| O=C(NCCc1cnco1)c1ccc2c(c1)NC(=O)c1ccccc1S2 [Compound 1246] | 96 | 6 |
| O=C(NCCc1cncs1)c1ccc2c(c1)NC(=O)c1ccccc1S2 [Compound 1247] | 103 | 8 |
| O=C(NCCc1ccc(-n2ccnc2)cc1)c1ccc2c(c1)NC(=O)c1ccccc1S2 [Compound 1248] | 106 | 3 |
| O=C(NCCc1ccc(-n2cncn2)cc1)c1ccc2c(c1)NC(=O)c1ccccc1S2 [Compound 1249] | 108 | 34 |
| O=C(NCCC1CCCCC1)c1ccc2c(c1)NC(=O)c1ccc(Cl)cc1S2 [Compound 1250] | 113 | 14 |
| O=C(NCC(c1ccccc1)N1CCCC1)c1ccc2c(c1)NC(=O)c1ccccc1S2 (stereo not drawn) [Compound 1251] | 99 | 8 |
| O=C(NCCC(c1ccccc1)N1CCCC1)c1ccc2c(c1)NC(=O)c1ccccc1S2 (stereo not drawn) [Compound 1252] | 94 | 14 |
| CC(=O)Nc1ccccc1CNC(=O)c1ccc2c(c1)NC(=O)c1ccccc1S2 [Compound 1253] | 103 | 15 |
| O=C(NCCc1ccc(-n2nccn2)cc1)c1ccc2c(c1)NC(=O)c1ccccc1S2 [Compound 1256] | 102 | 1 |
| O=C(NCCC1CCCCC1)c1ccc2c(c1)NC(=O)c1cnccc1S2 [Compound 1257] | 113 | 26 |
| O=C(NC[C@H](CO)c1ccccc1)c1ccc2c(c1)NC(=O)c1ccccc1S2 [Compound 1258] | 105 | 12 |

Reference: patent US10183936B2, “Hepatitis B core protein allosteric modulators” (priority 2014, dated 2019)
